How the values were obtained:
[1] = tested on: construct in which the SNCA 5′ UTR was absent; experiment: Luciferase reporter assay, construct lacking SNCA 5′ UTR, SH-SY5Y cells; format: cell-based, human; details: cellular
Source text: pIRES-Luc-EGFP-puro: The firefly luciferase open reading frame (ORF) was amplified with primers 1 and 2 using pmirGLO-dual-luciferase (Promega, E1330) as a template. The PCR product was then fused with linearized pIRES-EGFP-puro (Addgene plasmid #45567) digested with XhoI and SacI, placing the luciferase ORF upstream of the IRES sequence. pCDH-Luc-EGFP-puro: The firefly luciferase open reading frame (ORF) was amplified with primers 15 and 16 using pmirGLO-dual-luciferase (Promega, E1330) as a template. The PCR product was then fused with linearized pCDH-CB-IRES-copGFP-T2A-Puro digested with BamHI and NotI, placing the luciferase ORF upstream of IRES sequence. Luciferase assay. The effect of Synucleozid treatment on translation from various IRE containing transcripts was determined using luciferase reporter assay. […] Luciferase reporter activity in each lysate was monitored using the dual luciferase reporter assay system kit (Promega. Madison, Wis., USA) according to the manufacturer's instructions. Luminescence from firefly luciferase reaction was measured using a microplate luminometer (Wallac 1420, Perkin Elmer) at 485 nm excitation and 535 nm emission wavelengths. Firefly luciferase reaction was then quenched by adding Stop & Glo reagent, and the internal fluorescence from GFP measured at the same setting was used to normalize luciferase expression. […]

SH-SY5Y cells proteome = experiment: Proteomics profiling by mass spectrometry; format: cell-based, human; details: 48 h
Protocol: Treatment with Synucleozid and siRNA for proteomics profiling using Mass Spectrometry. SH-SY5Y cells were cultured in 100 mm dishes to 60% confluency and treated with 1.5 μM of Synucleozid or DMSO, or transfected with 0.1 μM α-synuclein siRNA (ON-TARGETplus Human SNCA siRNA-SMARTpool) or scramble siRNA (ON-TARGETplus Non-targeting siRNA) using Lipofectamine RNAiMAX (Invitrogen) according to the manufacturer's instructions for 48 h. Cells were gently washed twice with ice-cold PBS, detached and lysed in PBS via sonication. […] Same samples were then denatured in 6 M urea in 50 mM NH4HCO3, reduced with 10 mM tris(2-carboxyethyl)phosphine hydrochloride (TCEP) for 30 min, and alkylated with 25 mM iodoacetamide for 30 min, in the dark at room temperature. Samples were diluted to 2 M urea with 50 mM NH4HCO3, and digested with trypsin (Thermo Scientific, 1.5 μL of 0.5 μg/μL) in the presence of 1 mM CaCl2 (100× stock in water). The digestion was performed for 12 h at 37° C. Samples were acidified to a final concentration of 5% acetic acid, desalted over a self-packed C18 spin column, and dried. Samples were then analyzed by LC-MS/MS (see below). The MS data were processed with MaxQuant.
LC-MS/MS analysis. Peptides from samples described above were resuspended in water with 0.1% formic acid and analyzed using EASY-nLC 1200 nano-UHPLC coupled to Q Exactive HF-X Quadrupole-Orbitrap mass spectrometer (Thermo Scientific). The chromatography column consists 30 cm long, 75 μm i.d. microcapillary capped by a 5 μm tip and packed with ReproSil-Pur 120 C18-AQ 2.4 μm beads (Dr. Maisch GmbH). LC solvents had two buffers which were Buffer A (0.1% formic acid in H2O) and Buffer B (0.1% formic acid in 90% MeCN:10% H2O). Peptides from samples described above were eluted into the mass spectrometer at a flow rate of 300 nL/min over a 240 min linear gradient (5-35% Buffer B) at 65 C. Data-dependent mode (top-20, NCE 28, R=7500) was used to acquire data after full MS scan (R=60000, m/z 400-1300). Dynamic exclusion was 10 s. Peptide match was set to prefer. Isotope exclusion was enabled.
MaxQuant analysis. MaxQuant (11) (V1.6.1.0) was used to analyze the mass spectrometer data. Data was searched against the human proteome (Uniprot) and a list of contaminants (included in MaxQuant). The first and main peptide search tolerance were set to 20 ppm and 10 ppm respectively. Fragment mass tolerance was set to 0.02 Da. The false discovery rate (FDR) was 1% for proteins, peptides, and sites identification. The minimum peptide length was set to 6 amino acids (AA). Peptide requantification, label-free quantification (MaxLFQ), “match between runs” were all enabled. The minimal number of peptides for every protein was set to 2. A variable modification was set to be methionine oxidation, and a fixed modification was set to be carbamidomethylation of cysteines in searches.

[2] = tested on: A-bulge-mutated RNA (fully paired RNA); experiment: Thermal melting experiment, fully paired RNA; format: binding
Source text: Thermal melting experiment.

[3] = Synucleozid 1.5 μM vs vehicle, siRNA 0.1 μM vs scrambled control siRNA

N=C(N)c1ccc(Nc2ccc(-c3cc4ccc(C(=N)N)cc4[nH]3)cc2)cc1 [Synucleozid A]
inhibitory effect on luciferase construct lacking SNCA 5′ UTR [1]: No inhibitory effect | effect on proteins encoded by mRNAs with IREs (ACO2, NDUFS1, CDC42BPB, FTH1) (SH-SY5Y cells proteome; 1.5 μM): Only FTH1 was affected | number of proteins downregulated (SH-SY5Y cells proteome; [3]): 143 | number of proteins with increased expression (SH-SY5Y cells proteome; [3]): 140 | proteins affected, percentage of detected (SH-SY5Y cells proteome; [3]): 8% | proteins downregulated, % of all proteins (SH-SY5Y cells proteome; [3]): 4.3% | proteins with increased expression, % of all proteins (SH-SY5Y cells proteome; [3]): 4.2% | number of proteins affected among 3300 detected (SH-SY5Y cells proteome; Synucleozid 1.5 μM vs vehicle, siRNA 0.1 μM vs scrambled control siRNA, adjusted p-value <0.01): 283 | effect on thermal stability of A-bulge-mutated RNA [2]: no significant effect

From US20230054976A1, “METHODS FOR INHIBITION OF ALPHA-SYNUCLEIN mRNA USING SMALL MOLECULES” (The Scripps Research Institute, priority 2019, published 2023)
